From PMC11714206, “Massively Parallel Screening of Toll/Interleukin‐1 Receptor (TIR)‐Derived Peptides Reveals Multiple Toll‐Like Receptors (TLRs)‐Targeting Immunomodulatory Peptides” (Advanced Science, 2024)

Target: T1, MyD88^TIR (Homo sapiens, UniProt Q99836)
T1 construct: MyD88 (residues 148–296); 6xHis; made in house; host or cells: E. coli BL21 (DE3)
Test: T‐Surf phage library (P8 and P3) selection against MyD88^TIR, four rounds, NGS read counts
Assay type: binding
Conditions: for P3_MyD88 Rank (after) / P3_MyD88 Rank (before): P3 library; for Population: P8_MyD88 pool: P8 T-Surf phage library, 4th round of selection against MyD88 TIR, share of NGS reads; for P8_MyD88 Rank (after) / P8_MyD88 Rank (before): P8 library
Method in brief: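 Read counts come from NGS of phage pools enriched over four selection rounds on the plate‐coated TIR domain (5 µg mL^−1). Each round: 1 h phage binding at room temperature after 0.2% BSA blocking, Tween washes, acid elution, amplification in E. coli TG1 with M13KO7 helper.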

[1] = P8_MyD88: rank by NGS read count after grouping
[2] = P8_MyD88: rank by NGS read count before grouping
[3] = selection against MyD88, rank by count after grouping
[4] = selection against MyD88, rank by count before grouping
[5] = selection against MyD88 TIR, rank by count after grouping
[6] = selection against MyD88 TIR, rank by count before grouping
[7] = 4R selection against MyD88, rank after grouping
[8] = 4R selection against MyD88, rank before grouping
[9] = P8_MyD88: rank by count after grouping
[10] = P8_MyD88: rank by count before grouping
[11] = P3_MyD88: rank by count after grouping
[12] = P3_MyD88: rank by count before grouping
[13] = selection against MyD88, rank after grouping
[14] = selection against MyD88, rank before grouping

T1 sequence (Q99836 148-296): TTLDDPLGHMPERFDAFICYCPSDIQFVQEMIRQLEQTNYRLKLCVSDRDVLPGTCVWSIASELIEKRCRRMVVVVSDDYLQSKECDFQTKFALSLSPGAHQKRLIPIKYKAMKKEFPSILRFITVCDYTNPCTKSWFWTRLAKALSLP

GALDEVRKILYANETM
Rank (after) [1]: 908 | Rank (before) [2]: 2280

GEDTLYTFTGHLQATL
P3_MyD88 Rank (after) [3]: 719 | P3_MyD88 Rank (before) [4]: 1830

GEDTRLPLPAICMRP
P3_MyD88 Rank (after) [3]: 740 | P3_MyD88 Rank (before) [4]: 1831

GEDTRYTFTGHLHRYLVQRGV
P3_MyD88 Rank (after) [5]: 240 | P3_MyD88 Rank (before) [6]: 917

GEDTRYTYRPSACDP
P3_MyD88 Rank (after) [3]: 730 | P3_MyD88 Rank (before) [4]: 1850

GEVPRYIFTGHLHATQ
P3_MyD88 Rank (after) [7]: 633 | P3_MyD88 Rank (before) [8]: 1826

GFIDNLYQALANMGIH
Rank (after) [9]: 122 | Rank (before) [10]: 129 | Population: 0.0143%

GFLYHAFAREGIKIFM
Rank (after) [11]: 124 | Rank (before) [12]: 1793

GFLYQAFAREGLWRLLELSKK
Rank (after) [11]: 172 | Rank (before) [12]: 912

GFLYQALARDGFKIFM
Rank (after) [11]: 426 | Rank (before) [12]: 1811

GFREGLWRLLELSKK
P3_MyD88 Rank (after) [7]: 669 | P3_MyD88 Rank (before) [8]: 1819

GIFREGLWRLLELSKK
Rank (after) [11]: 105 | Rank (before) [12]: 919

GLSWGPYEWCRGLYDA
P8_MyD88 Rank (after) [3]: 770 | P8_MyD88 Rank (before) [4]: 2294

GLSWGPYEWWIDLYDA
Rank (after) [1]: 889 | Rank (before) [2]: 2308

GLSWVRMNGGWACMM
Rank (after) [1]: 922 | Rank (before) [2]: 2287

GLYDELFMTETDERKR
Rank (after) [11]: 439 | Rank (before) [12]: 1851

GNDVLGRKGLRVGSKD
Rank (after) [11]: 437 | Rank (before) [12]: 1875

GPQELEWCYERLVTKF
P8_MyD88 Rank (after) [7]: 604 | P8_MyD88 Rank (before) [8]: 2278

GRYDELFMTETDERKC
P3_MyD88 Rank (after) [7]: 603 | P3_MyD88 Rank (before) [8]: 1852

GRYEELFMTETDERLP
P3_MyD88 Rank (after) [3]: 735 | P3_MyD88 Rank (before) [4]: 1853

GSFREILLRLLDLSKK
P3_MyD88 Rank (after) [7]: 671 | P3_MyD88 Rank (before) [8]: 1858

GSFRESLWRLLELSKK
Rank (after) [11]: 465 | Rank (before) [12]: 1859

GTFIDYLYHRLMEEGI
Rank (after) [9]: 107 | Rank (before) [10]: 113 | Population: 0.02%

GWAWDYLLPNLEGPAG
P8_MyD88 Rank (after) [3]: 703 | P8_MyD88 Rank (before) [4]: 2275

GWIREHLWPLLKQRMT
P3_MyD88 Rank (after) [13]: 521 | P3_MyD88 Rank (before) [14]: 1877

HFAFSSWALDELANIL
P8_MyD88 Rank (after) [5]: 282 | P8_MyD88 Rank (before) [6]: 612

HFETTEGNFYKFFLFF
Rank (after) [9]: 165 | Rank (before) [10]: 187 | Population: 0.00694%

HLIQQGIELHLHQLHL
Rank (after) [1]: 941 | Rank (before) [2]: 3556

HLLKEFDKKLIPRLK
P3_MyD88 Rank (after) [3]: 685 | P3_MyD88 Rank (before) [4]: 2792

HLLKEFYKKQITAFKD
P3_MyD88 Rank (after) [5]: 194 | P3_MyD88 Rank (before) [6]: 2773

HLLREFDKKLITAFQD
P3_MyD88 Rank (after) [7]: 594 | P3_MyD88 Rank (before) [8]: 2769

HLRKEFDKRLITSFKD
Rank (after) [11]: 387 | Rank (before) [12]: 2800

HPWRNTLTAAANLNGR
P3_MyD88 Rank (after) [13]: 546 | P3_MyD88 Rank (before) [14]: 2804

HQLSVDIQGYALKAGV
P3_MyD88 Rank (after) [3]: 679 | P3_MyD88 Rank (before) [4]: 2807

HSEWACHELYFSHFWP
P3_MyD88 Rank (after) [13]: 551 | P3_MyD88 Rank (before) [14]: 2827

HWIDWEYFVALKIIL
Rank (after) [9]: 427 | Rank (before) [10]: 1236

HWIDWVWDYLLPNLEGPAG
P8_MyD88 Rank (after) [7]: 581 | P8_MyD88 Rank (before) [8]: 3518

HWIEWEYFVGIEEHIK
Rank (after) [9]: 397 | Rank (before) [10]: 3541

HYTDSYFALHELALLL
Rank (after) [9]: 128 | Rank (before) [10]: 138 | Population: 0.0119%

IAADHLSYLGRLLLSR
Rank (after) [1]: 885 | Rank (before) [2]: 3614

IDDDHLTYLVRLIEAL
Rank (after) [9]: 473 | Rank (before) [10]: 3638

IDDDHLTYLVRLLLS
P8_MyD88 Rank (after) [7]: 597 | P8_MyD88 Rank (before) [8]: 3635

IDDDHLTYLVRLLLSLL
P8_MyD88 Rank (after) [13]: 539 | P8_MyD88 Rank (before) [14]: 3634

IDDDHLTYLVRLLQIA
P8_MyD88 Rank (after) [3]: 761 | P8_MyD88 Rank (before) [4]: 3637
